Assay results: patent US8106055B2, “Substituted amide compounds” (Gruenenthal GmbH, priority 2007, dated 2012)

Columns and labels:
[1] = target: T1, serotonin (5-HT) reuptake (Rattus norvegicus, UniProt P31652); assay: Inhibition of serotonin (5HT) reuptake in synaptosomes from rat brain; type: biochemical; details: test concentration of 10 μM
T1 construct: synaptosomes are freshly isolated from areas of the rat brain; from tissue; host or cells: rat brain synaptosomes (P2 fraction)
Outline: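 Compounds screened at 10 μM and reported as percent inhibition of serotonin uptake. Uptake measured in a freshly prepared P2 synaptosomal fraction from rat brain.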

[2] = target: T2, human bradykinin 1 receptor (B1R) (Homo sapiens, UniProt P46663); assay: Functional investigation on the human bradykinin 1 receptor (B1R), Ca2+ FLIPR assay in CHO K1 hB1R cells; type: cell-based; details: B1R antagonism human; test substance 10 μM; Ca2+ FLIPR, CHO K1 hB1R cells
T2 construct: expressed in transfected cells; host or cells: CHO K1 cells
T2 sequence (P46663 1-353): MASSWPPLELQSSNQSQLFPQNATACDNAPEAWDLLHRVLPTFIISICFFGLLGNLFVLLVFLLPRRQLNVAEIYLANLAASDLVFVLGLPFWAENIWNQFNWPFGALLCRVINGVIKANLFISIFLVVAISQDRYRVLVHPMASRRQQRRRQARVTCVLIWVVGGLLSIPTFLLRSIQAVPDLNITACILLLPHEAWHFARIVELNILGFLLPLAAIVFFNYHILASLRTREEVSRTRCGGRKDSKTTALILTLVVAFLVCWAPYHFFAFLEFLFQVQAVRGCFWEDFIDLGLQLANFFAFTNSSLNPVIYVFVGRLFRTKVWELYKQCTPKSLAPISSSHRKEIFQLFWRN
Outline: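 Fluo-4 Ca2+ readout, peak fluorescence. Stable CHO K1 transfectants; compound pre-incubated 10-20 min, then EC80 agonist—Lys-Des-Arg9-BK for hB1R, Des-Arg9-BK for rB1R. % inhibition vs maximal inhibition; IC50 from multiple concentrations, duplicate/triplicate, ≥2 independent runs.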

T1 sequence (P31652 whole entry): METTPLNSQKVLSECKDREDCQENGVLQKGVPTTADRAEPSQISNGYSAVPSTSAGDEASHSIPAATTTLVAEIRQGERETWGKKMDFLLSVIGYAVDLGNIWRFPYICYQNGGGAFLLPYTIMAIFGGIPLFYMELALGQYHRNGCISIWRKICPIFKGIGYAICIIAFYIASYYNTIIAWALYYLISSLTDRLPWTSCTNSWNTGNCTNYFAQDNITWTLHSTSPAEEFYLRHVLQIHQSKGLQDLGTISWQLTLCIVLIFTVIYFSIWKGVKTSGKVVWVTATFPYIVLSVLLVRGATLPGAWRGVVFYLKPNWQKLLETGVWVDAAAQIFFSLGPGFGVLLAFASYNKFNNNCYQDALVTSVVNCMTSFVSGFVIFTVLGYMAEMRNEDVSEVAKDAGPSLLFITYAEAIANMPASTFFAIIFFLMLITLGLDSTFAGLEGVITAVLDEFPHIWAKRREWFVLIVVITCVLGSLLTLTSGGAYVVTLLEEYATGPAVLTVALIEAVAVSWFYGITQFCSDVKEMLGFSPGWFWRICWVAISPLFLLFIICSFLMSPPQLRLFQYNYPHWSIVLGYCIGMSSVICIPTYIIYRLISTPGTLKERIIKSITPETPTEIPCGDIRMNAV

| SMILES | 5-HT (inhibition of reuptake of serotonin, % inhibition) [1] | B1R Ant. h [10 μM] % Inhibition [2] |
| --- | --- | --- |
| COc1ccc(S(=O)(=O)N2CCCCC2COCC(=O)NCCC2CCC(C(c3ccc(F)cc3)N(C)C)CC2)c(OC)c1 (stereo not shown) [Example 500] | 90% | 3% |
| Cc1cc(C)c(S(=O)(=O)N2CCC(OCC(=O)NCCC3CCC(C(c4ccc(F)cc4)N(C)C)CC3)C2)c(C)c1 (stereo not shown) [Example 501] | 77% | 77% |
| CN(C)C(c1ccc(F)cc1)C1CCC(NC(=O)COCCN2CCN(S(=O)(=O)c3ccccc3)CC2)CC1 (stereo not shown) [Example 502] | 97% | −3% |
| COc1cc(C)c(S(=O)(=O)N2CCC(OCC(=O)NCC3CCC(C(CCc4ccccc4)N(C)C)CC3)C2)c(C)c1C (stereo not shown) [Example 503] | 90% | 105% |
| COc1cc(C)c(S(=O)(=O)N(CCOCC(=O)NC2CCC(C(c3ccc(F)cc3)N(C)C)CC2)Cc2ccccc2)c(C)c1 (stereo not shown) [Example 504] | 89% | 69% |
| Cc1cc(C)c(S(=O)(=O)N2CCC(OCC(=O)NCCC3CCC(C(c4ccc(Cl)cc4)N(C)C)CC3)C2)c(C)c1 (stereo not shown) [Example 506] | 86% | 83% |
| CN(C)C(c1ccccc1)C1CCC(CNC(=O)COCCC2CCN(S(=O)(=O)c3ccccc3)CC2)CC1 (stereo not shown) [Example 507] | 75% | −19% |
| COc1ccc(S(=O)(=O)N(C)CCOCC(=O)NCC2CCC(C(c3ccc(F)cc3)N(C)C)CC2)cc1 (stereo not shown) [Example 508] | 80% | 46% |
| COc1cc(C)c(S(=O)(=O)N2CCC(OCC(=O)NCCC3CCC(C(c4ccc(F)cc4)N(C)C)CC3)C2)c(C)c1 (stereo not shown) [Example 509] | 97% | 104% |
| COc1cc(C)c(S(=O)(=O)N2CCC(CCOCC(=O)NCCC3CCC(C(c4ccc(F)cc4)N(C)C)CC3)CC2)c(C)c1C (stereo not shown) [Example 510] | 99% | 15% |
| COc1ccc(S(=O)(=O)N2CCCC2COCC(=O)NCC2CCC(C(c3ccc(F)cc3)N(C)C)CC2)cc1 (stereo not shown) [Example 511] | 98% | 38% |
| COc1ccc(S(=O)(=O)N2CCC(OCC(=O)NC3CCC(C(c4ccc(F)cc4)N(C)C)CC3)C2)cc1OC (stereo not shown) [Example 512] | 86% | −4% |
| CN(C)C(CCc1ccccc1)C1CCC(CNC(=O)COCCN(C)S(=O)(=O)c2ccc(Cl)cc2Cl)CC1 (stereo not shown) [Example 513] | 89% | 100% |
| COc1ccc(S(=O)(=O)N(C)CCOCC(=O)NCC2CCC(C(c3ccc(F)cc3)N(C)C)CC2)cc1OC (stereo not shown) [Example 514] | 70% | −6% |
| CN(C)C(CCc1ccccc1)C1CCC(CNC(=O)COCCN(C)S(=O)(=O)c2c(Cl)cc(Cl)cc2Cl)CC1 (stereo not shown) [Example 515] | 97% | 101% |
| CN(C)C(c1ccc(F)cc1)C1CCC(CNC(=O)COC2CCN(S(=O)(=O)c3ccc(Cl)cc3)C2)CC1 (stereo not shown) [Example 517] | 86% | −13% |
| CN(C)C(c1ccc(F)cc1)C1CCC(CCNC(=O)COC2CCN(S(=O)(=O)c3ccc(F)cc3)C2)CC1 (stereo not shown) [Example 518] | 102% | −2% |
| COc1ccc(S(=O)(=O)N(C)CCOCC(=O)NCCC2CCC(C(c3ccc(F)cc3)N(C)C)CC2)cc1 (stereo not shown) [Example 519] | 88% | 38% |
| CN(C)C(c1ccc(F)cc1)C1CCC(CCNC(=O)COC2CCCN(S(=O)(=O)c3ccccc3)C2)CC1 (stereo not shown) [Example 520] | 97% | −4% |

| SMILES | 5-HT (inhibition of reuptake of serotonin, % inhibition) [1] | B1R Ant. h [10 μM] % Inhibition [2] |
| --- | --- | --- |
| COc1cc(C)c(S(=O)(=O)N2CCC(CCOCC(=O)NCC3CCC(C(CCc4ccccc4)N(C)C)CC3)CC2)c(C)c1C (stereo not shown) [Example 521] | 89% | 66% |
| CN(C)C(c1ccc(F)cc1)C1CCC(CNC(=O)COC2CCN(S(=O)(=O)c3ccc(F)cc3)C2)CC1 (stereo not shown) [Example 522] | 98% | 1% |
| COc1cc(C)c(S(=O)(=O)N(CCOCC(=O)NC2CCC(C(c3ccc(F)cc3)N(C)C)CC2)Cc2ccccc2)c(C)c1C (stereo not shown) [Example 523] | 81% | 50% |
| COc1ccc(S(=O)(=O)N2CCCCC2COCC(=O)NC2CCC(C(c3ccc(F)cc3)N(C)C)CC2)c(OC)c1 (stereo not shown) [Example 524] | 86% | −11% |
| COc1cc(C)c(S(=O)(=O)N(C)CCOCC(=O)NCC2CCC(C(CCc3ccccc3)N(C)C)CC2)c(C)c1 (stereo not shown) [Example 525] | 84% | 99% |
| CN(C)C(CCc1ccccc1)C1CCC(CNC(=O)COCCN2CCN(S(=O)(=O)c3ccccc3)CC2)CC1 (stereo not shown) [Example 526] | 90% | 10% |
| COc1cc(C)c(S(=O)(=O)N2CCC(OCC(=O)NCC3CCC(C(c4ccc(F)cc4)N(C)C)CC3)CC2)c(C)c1C (stereo not shown) [Example 527] | 96% | 57% |
| COc1cc(C)c(S(=O)(=O)N2CCN(CCOCC(=O)NCC3CCC(C(CCc4ccccc4)N(C)C)CC3)CC2)c(C)c1C (stereo not shown) [Example 528] | 94% | 98% |
| CN(C)C(c1ccc(F)cc1)C1CCC(CCNC(=O)COC2CCN(S(=O)(=O)c3ccccc3)C2)CC1 (stereo not shown) [Example 530] | 89% | −18% |
| CN(C)C(c1ccc(Cl)cc1)C1CCC(CCNC(=O)COCCC2CCN(S(=O)(=O)c3ccccc3)CC2)CC1 (stereo not shown) [Example 531] | 98% | 2% |
| CN(C)C(c1ccc(F)cc1)C1CCC(CNC(=O)COC2CCN(S(=O)(=O)c3ccccc3)C2)CC1 (stereo not shown) [Example 532] | 99% | 5% |
| CN(C)C(CCc1ccccc1)C1CCC(CNC(=O)COCCN(Cc2ccccc2)S(=O)(=O)c2ccccc2)CC1 (stereo not shown) [Example 533] | 93% | 35% |
| COc1ccc(S(=O)(=O)N2CCCCC2CCOCC(=O)NCC2CCC(C(CCc3ccccc3)N(C)C)CC2)cc1 (stereo not shown) [Example 535] | 85% | 77% |
| CCN(CCOCC(=O)NCC1CCC(C(CCc2ccccc2)N(C)C)CC1)S(=O)(=O)c1c(C)cc(OC)c(C)c1C (stereo not shown) [Example 536] | 84% | 105% |
| Cc1ccc(S(=O)(=O)N2CCC(OCC(=O)NCC3CCC(C(CCc4ccccc4)N(C)C)CC3)C2)cc1 (stereo not shown) [Example 538] | 91% | 7% |
| CN(C)C(CCc1ccccc1)C1CCC(CNC(=O)COCCN(C)S(=O)(=O)c2ccc(F)cc2)CC1 (stereo not shown) [Example 539] | 102% | 27% |
| COc1ccc(S(=O)(=O)N2CCCCC2COCC(=O)NCCC2CCC(C(c3ccc(Cl)cc3)N(C)C)CC2)cc1OC (stereo not shown) [Example 540] | 81% | −19% |
| COc1cc(C)c(S(=O)(=O)N2CCC(OCC(=O)NCC3CCC(C(c4ccc(F)cc4)N(C)C)CC3)C2)c(C)c1 (stereo not shown) [Example 541] | 95% | 100% |
| COc1cc(C)c(S(=O)(=O)N(CCOCC(=O)NCC2CCC(C(CCc3ccccc3)N(C)C)CC2)Cc2ccccc2)c(C)c1 (stereo not shown) [Example 542] | 87% | 103% |
